Literature values in patent publication US20110305738A1, “Oxygenating Oral Compositions” (priority 2010, published 2011).

How the values were obtained:
[1] = not given; remark: listed apart in the source

NC(N)=O.OO [Carbamide peroxide]
water solubility (at 20 °C): 800 grams per liter
saturated solution concentration of carbamide peroxide (water at 20° C.): 44.4%
pH upon dissolution ([1]; 1% solution): approximately 4.05
pH when solubilized in water ([1]; saturated solution): approximately 3.40
